The values that follow come from patent US11142524B2, “Substituted-3H-imidazo[4,5-c]pyridine and 1H-pyrrolo[2,3-c]pyridine series of novel Ectonucleotide Pyrophosphatase/Phosphodiesterase-1 (ENPP1) and stimulator for interferon genes (STING) modulators as cancer immunotherapeutics” (Stingray Therapeutics, Inc., priority 2018, dated 2021).

In test [1] the test system is MDA-MB-468. Nature of the test: Chou-Talalay Synergy Study with Olaparib, MDA-MB-468. It is filed as cell-based. Conditions: MDA-MB-468, 72 hours. The procedure:
Cell Lines: MDA-MB-468 and UWB289.1 (ATCC). Cell Titer Glo (Promega cat #: G7572). 96-well TC treated, white assay plates
Cells were cultured according to ATCC tissue culture recommendations. Cells were plated in a 96-well tissue culture plate at a density of 1500 cells/well and allowed to settle overnight. The following day, both drugs were prepared at 10× concentration in the following ratios (Compound 22:Olaparib): 1:1, 10:1, and 1:10. The drugs were serially diluted to create an 8-point dose curve and 10 μL of each drug was added to the cells for a total volume of 100 μL/well. Plates were placed in a tissue culture incubator for 72 hours. Following incubation, each plate was treated with Cell Titer Glo according to vendor recommendation and luminescence was measured with the Envision Plate Reader. Data was analyzed using CalcuSyn software according to the methods described in Chou, Drug combination studies and their synergy quantification using the Chou-Talalay method, Cancer Res. 2010 Jan. 15; 70(2):440-6.
A Combination index (CI) value greater than 1 indicates […], equal to 1 indicates additive and less than 1 indicates synergy.

The test system of test [2] is B16F10 tumor. Nature of the test: Anti-tumor efficacy in B16F10 (melanoma) syngeneic model. It is filed as in vivo, C57BL/6 mice. From the text: Animals: Female C57BL/6 (4-6 week's age from Taconic).
The B16F10 cells were propagated in DMEM cell culture medium containing 10% Fetal Bovine Serum. Cells were harvested in logarithmic growth phase and implanted subcutaneously ([…]) in the lower abdomen of mice. Tumor growth was monitored daily and after the tumors had reached 80 to 100 mm3, mice were randomized into groups consisting of 8 animals per group. Animals were euthanized when tumors reached around 2000 mm^3 or treatment regime completed or 20% of body weight loss, or developed ulceration and necrosis. Upon termination, tumor samples and blood were collected and analyzed for biomarkers.

In test [3] the target is T1, ENPP1 protein (Homo sapiens (Human), UniProt P22413). Nature of the test: ENPP1 Thermal Shift Assay (Example 1). It is filed as binding. The procedure: Assay Buffer (1 mM CaCl2, 0.2 mM ZnCl2, 50 mM Tris, pH 9.0) 5000×SYPRO Orange (ThermoFisher cat #S6651) 384-well PCR Plates
Each drug was prepared as a 10× solution in the assay buffer and SYPRO Orange was diluted to 10× concentration in water. Wells were set up in duplicate in a 384-well PCR plate as follows: 14 μL assay buffer, 2 μL ENPP1 Inhibitor or DMSO, 2 μL (0.5 μg) ENPP1 protein. Each well was mixed and incubated on ice for 5 minutes. Post incubation, 2 μL of SYPRO Orange was mixed into each well and followed by a gentle centrifugation. The protein melt reaction was run using ViiA7 software with temperatures beginning at 25° C. and increasing by 0.05° C./s to the maximum temperature of 99° C.
In a 384-well plate, 1.0 μg of ENPP1 protein incubated with 100 μM of the corresponding drug for 5 minutes. Each well exposed to increasing temperatures to determine an unfolding temperature of the protein.

Test [4] has as its system CT26 tumor. Nature of the test: CT26 tumor growth inhibition study. The test is classed as in vivo. The conditions noted are these: 30 mg P.O. QD, FIG. 14.
The target in test [5] is Recombinant Human ENPP-2/Autotaxin Protein (Homo sapiens (Human), UniProt Q13822). The test can be described thus: ENPP2 Inhibition Assay. The test is classed as biochemical. The method, then: Assay Buffer: 10 mM CaCl2, 5 mM MgCl2, 50 mM Tris, 0.02% Brij-35, pH 8.5. Substrate: 2 mM Bis(p-Nitrophenyl) Phosphate Sodium Salt (Sigma Cat # N3002). Enzyme: 0.2 ng/μL Recombinant Human ENPP-2/Autotaxin Protein (R&D Cat #5255-EN), PF-3080 in DMSO in 96-well clear assay plates
(§1) An eight point serial dilution of drugs was prepared in 10× in assay buffer with the final assay concentrations starting at 10 μM, 3 μM, 1 μM, 0.3 μM . . . 0 μM. A dilution of DMSO was included as a control. The assay plate was set up as follows with each well in duplicate: 15 μL assay buffer+10 μL ENPP1 inhibitor or DMSO+50 μL Substrate+25 μL Enzyme. Both the enzyme and substrate were added to opposite sides of the well to ensure that there was no interaction until all wells had both components. The plate was then centrifuged gently for 10 seconds, followed by an incubation at 37° C. for 45 minutes. The reaction was quantified by measuring absorbance at 405 nm using the Envision.
(§2) IC50 values are determined using GraphPad Prism 5 software. The data were entered as an X-Y plot into the software as percent inhibition for each concentration of the drug. The concentration values of the drug were log transformed and the nonlinear regression was carried out using the “sigmoidal dose-response (variable slope)” option within the GraphPad software to model the data and calculate IC50 values. The IC50 values reported are the concentration of drug at which 50% inhibition was reached.

Test [6] has as its target T1, ENPP1 protein. Nature of the test: ENPP1 Inhibition Assay (thymidine 5′-monophosphate p-nitrophenol ester substrate). The test is classed as biochemical. The method, then: Assay Buffer: 1 mM CaCl2, 0.2 mM ZnCl2, 50 mM Tris, pH 9.0. Substrate: 8 mM Thymidine 5′-monophosphate p-nitrophenol ester sodium salt (Sigma Cat #T4510). Enzyme: 5 ng/L Recombinant Human ENPP-1 Protein (R&D Cat #6136-EN-010) in DMSO in 96-well clear assay plates
as §1, with “81” for “15”, “DMSO+5” for “DMSO+50”, “Substrate+4” for “Substrate+25”
as §2

The test system of test [7] is Saos-2 Cells. Nature of the test: ENPP1 Mineralization Assay. The test is classed as cell-based. Conditions: FIG. 4, normalized against DMSO control. The procedure: Saos-2 Cells (ATCC CAT #HTB-85). Culture Medium. 24-well Tissue Culture Plate. Ascorbic Acid, 5 mg/mL (100×). β-Glycerophosphate, 1M (100×). Phosphate Buffered Saline. Alizarin Red, 40 mM pH 4.2. 70% Ethanol. Dye Extraction Reagent, 10% Methanol+10% Acetic Acid
Saos-2 cells were plated at a density of 1.5×10^6 cells/well and allowed to grow to 100% confluency over the following 1-2 days. Once completely confluent, the media was replaced with fresh media supplemented with 1× ascorbic acid, 1× β-glycerophosphate, and varying concentrations of ENPP1 inhibitor (if applicable). The addition of the mineralization components was considered Day 1. On Day 3, the media was gently aspirated with no wash followed by the addition of fresh media, mineralization components, and ENPP1 inhibitor (if applicable). On day 5, the media was gently aspirated and the cells were washed twice with PBS. The cells were then fixed with ice cold 70% ethanol for 1 hour at 4° C. Cells were washed once with PBS and stained with Alizarin Red for 30 minutes at room temperature with gentle rotation. Stained cells were washed three times with water for 10 minutes at room temperature with gentle rotation. After imaging cells, dye extraction reagent was added to each well and incubated for 30 minutes at room temperature. Alizarin red was quantified by measuring absorbance at a wavelength of 405 nm using the Envision.
FIG. 9 depicts a picture of results of a similar SAOS-2 mineralization assay. SAOS-2 cell were cultured in the presence and absence of ENPP1 inhibitor (compound 78, 107-02 or 108) and exposed to mineralization components for 3 days.

Molecules are shown by their SMILES.

T1 sequence (P22413 whole entry, looked up, change not shown): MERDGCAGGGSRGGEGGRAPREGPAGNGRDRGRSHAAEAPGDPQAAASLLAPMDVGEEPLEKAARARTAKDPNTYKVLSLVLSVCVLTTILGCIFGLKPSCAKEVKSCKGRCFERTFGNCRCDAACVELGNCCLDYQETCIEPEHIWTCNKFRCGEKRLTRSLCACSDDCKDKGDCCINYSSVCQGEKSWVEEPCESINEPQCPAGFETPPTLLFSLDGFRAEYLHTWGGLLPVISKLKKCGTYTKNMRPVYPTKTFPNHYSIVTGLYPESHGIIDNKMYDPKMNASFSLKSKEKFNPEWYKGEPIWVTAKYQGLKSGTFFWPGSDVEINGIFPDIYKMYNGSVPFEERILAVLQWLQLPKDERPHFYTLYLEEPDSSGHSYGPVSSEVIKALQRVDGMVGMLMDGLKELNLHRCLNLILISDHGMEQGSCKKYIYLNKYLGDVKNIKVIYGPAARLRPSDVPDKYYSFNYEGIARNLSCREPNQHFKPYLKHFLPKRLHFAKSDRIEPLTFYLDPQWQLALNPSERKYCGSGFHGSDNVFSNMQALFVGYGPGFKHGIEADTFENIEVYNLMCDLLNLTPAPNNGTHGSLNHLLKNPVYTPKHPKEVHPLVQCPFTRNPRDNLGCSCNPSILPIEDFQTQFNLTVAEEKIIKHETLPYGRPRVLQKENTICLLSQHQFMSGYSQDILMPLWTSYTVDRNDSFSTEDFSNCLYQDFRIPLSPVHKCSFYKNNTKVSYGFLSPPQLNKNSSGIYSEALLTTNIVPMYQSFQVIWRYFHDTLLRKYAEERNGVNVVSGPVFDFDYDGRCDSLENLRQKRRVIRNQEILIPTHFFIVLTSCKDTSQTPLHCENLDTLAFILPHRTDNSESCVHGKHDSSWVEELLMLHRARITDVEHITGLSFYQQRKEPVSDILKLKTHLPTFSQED

Take `O=C(c1cc(Cc2n[nH]c(=O)c3ccccc23)ccc1F)N1CCN(C(=O)C2CC2)CC1` [Olaparib]: the “ED50 Drug Concentration Olaparib” value in test [1] came out at 185065 nM.

In general, ΔTm refers to the change in melting temperature against a reference sample. Regarding `COc1cc(NC(=O)CSc2nc3cc(Cl)ncc3[nH]2)ccc1O` [Compound 22, 2-((6-chloro-3H-imidazo[4,5-c]pyridin-2-yl)thio)-N-(4-hydroxy-3-methoxyphenyl) acetamide], the “B16F10 tumor growth inhibition” value in test [2] (30 mg/kg dose (FIG. 6A / FIG. 13A)) is listed as 28%; in test [2] (FIG. 6B / FIG. 13B, dose and route not stated), 27%. Also, the “Tm (° C.)” value in test [3] (Table 2, FIG. 7, 100 μM drug, 1.0 μg ENPP1, NT 60.05) was determined as 61.37 °C. For the same compound, in test [3] (Table 2, FIG. 7, 100 μM drug, 1.0 μg ENPP1, read-out: ΔTm (° C.)), the ΔTm at 100 µM came to 1.32 °C. Further, the “CT26 tumor growth inhibition” value in test [4] is recorded as 39%.

By IC50 is commonly meant the concentration that gives 50% inhibition. In the case of `COc1ccc(NC(=O)CSc2nc3cc(Cl)ncc3[nH]2)cc1O` [Compound 21, 2-((6-chloro-3H-imidazo[4,5-c]pyridin-2-yl)thio)-N-(3-hydroxy-4-methoxyphenyl) acetamide], the “selective at inhibiting ENPP1 but not ENPP2” value in test [5] is recorded as “selective”. Further, the “inhibiting the activity of ENPP2” value in test [5] (FIGS. 2A and 2B) was “ineffective”. For the same compound, the “increasing the stability of recombinant ENPP1 protein” value in test [3] (FIG. 3) is reported as “effective”. In test [3] (FIG. 3, ENPP1 alone 64.2° C.), the “Tm (midpoint of the protein unfolding transition) of ENPP1” value came to 67.84 °C. For the same compound, the “inhibiting the activity of ENPP1” value in test [6] (FIG. 1) is “effective”. Besides, the IC50 in test [6] (Table 1, FIG. 1, read-out: IC50) was found to be 86.8 nM. Further, in test [7], the “inhibiting ENPP1 ability to produce mineralized nodules” value is “effective”.
